In patent publication US20250311722A1, “IMPROVED BIOCIDE” (Purgos ApS, priority 2022, published 2025):
≈ marks a conversion by molar mass, not a printed value.

Assays:
bacteria [1] = assay: APDEA in different PVB dispersions at 32° C., ATP analysis (LuminUltra); format: cell-based; design: bacteria count 6 mo after adding APDEA / bacteria count 1 d after adding APDEA / bacteria count 1 wk after adding APDEA / bacteria count 1 mo after adding APDEA / bacteria count 3 mo after adding APDEA: unit not given here
Procedure: Tertiary amine, water and PVB-dispersion was mechanically stirred in IKA vertical fixed blade stirrer for sampling in 2-5 minutes. Conditions was industrial clean, meaning no special precautions was taken to prevent contamination, except normal cleanliness and between operations dishwashing procedures.
Working temperatures was 20-25 degre Celsius, and all incubations was made in thermostatic 32-degree Celsius incubator ovens for bottled flasks and open petri dishes.
Before measuring total ATP, the samples are shaken for 30 seconds in a mechanical mixer. 1 ml of each sample is used in the process of analysing total ATP. The protocol is provided by LuminUltra Technologies.
The biocidal effectivity of APDEA in different PVB dispersions was measured as explained above in example 46. Incubation was done at 32° C. and sample tested 1 day (abbreviated as 1d in table XX), 1 week (abbreviated as 1 wk in table XX) and 1, 3 and 6 months (abbreviated as mo in tables XXIII and XXIV) after addition of APDEA.

[2] = cited from earlier work
rat = settings: cited from earlier work
bacteria [3] = assay: 2,2′-(octylimino)bisethanol in K-Oleate, incubated at 32° C., cATP (LuminUltra); format: cell-based
Procedure: (§1) A solution of 2,2′-(octylimino)bisethanol was added to two different solutions comprising two different surfactants, in two different concentrations of 0.50% and 1.00%. The four different solutions incubated at 32° C. and analysed for microbial activity and microbial contamination using […] Adenosine Triphosphate cATP as a measure of microbial contamination using LuminUltra® microbial monitoring system (see e.g. Examples 1, 5 and 6). The results are summarized in tables XXV and XXVI, where “additive” refers to 2,2′-(octylimino)bisethanol.

bacteria [4] = assay: 2,2′-(octylimino)bisethanol in common surfactant/soap, at 32° C., cATP (LuminUltra); format: cell-based
Procedure: as §1

bacteria [5] = assay: 2,2′-(octylimino)bisethanol in contaminated solution of polyisocyanate crosslinker, 32° C., cATP (LuminUltra); format: cell-based; settings: for bacteria count: 32° C.
Procedure: For further analysing the biocidal effect of 2,2′-(octylimino)bisethanol, a solution of 2,2′-(octylimino)bisethanol was added into a contaminated solution of polyisocyanate crosslinker in two different concentrations of 0.50% and 1.00%, incubated at 32° C. and analysed for microbial activity and microbial contamination using […] Adenosine Triphosphate cATP as a measure of microbial contamination using LuminUltra® microbial monitoring system.

[6] = 0.5% APDEA, PVB dispersion FX2, 32° C.
[7] = 0.5% APDEA, PVB dispersion FX6, 32° C.
[8] = 0.5% APDEA, PVB dispersion MW, 32° C.
[9] = 0.5% APDEA, PVB dispersion SX2, 32° C.
[10] = 0.5% APDEA, PVB dispersion WX2, 32° C.
[11] = 0.5% APDEA, PVB dispersion WX25, 32° C.
[12] = 1.0% APDEA, PVB dispersion FX2, 32° C.
[13] = 1.0% APDEA, PVB dispersion FX6, 32° C.
[14] = 1.0% APDEA, PVB dispersion MW, 32° C.
[15] = 1.0% APDEA, PVB dispersion SX2, 32° C.
[16] = 1.0% APDEA, PVB dispersion WX2, 32° C.
[17] = 1.0% APDEA, PVB dispersion WX25, 32° C.
[18] = 0.50% in common surfactant/soap
[19] = 1.00% in common surfactant/soap

## NCCCN(CCO)CCO [APDEA, N-(3-Aminopropyl) diethanolamine]
Bacteria [1]; [6]
  bacteria count 1 mo after adding APDEA: 35
  bacteria count 1 wk after adding APDEA: 73
  bacteria count 3 mo after adding APDEA: 83
  bacteria count 6 mo after adding APDEA: 195
  bacteria count 1 d after adding APDEA: 25
Bacteria [1]; [7]
  bacteria count 1 mo after adding APDEA: 40
  bacteria count 1 wk after adding APDEA: 33
  bacteria count 3 mo after adding APDEA: 65
  bacteria count 6 mo after adding APDEA: 96.6
  bacteria count 1 d after adding APDEA: 71
Bacteria [1]; [8]
  bacteria count 1 mo after adding APDEA: 60
  bacteria count 1 wk after adding APDEA: 33
  bacteria count 3 mo after adding APDEA: 84
  bacteria count 6 mo after adding APDEA: 45
  bacteria count 1 d after adding APDEA: 82
Bacteria [1]; [9]
  bacteria count 1 mo after adding APDEA: 85
  bacteria count 1 wk after adding APDEA: 66
  bacteria count 3 mo after adding APDEA: 48
  bacteria count 6 mo after adding APDEA: 79
  bacteria count 1 d after adding APDEA: 29
Bacteria [1]; [10]
  bacteria count 1 mo after adding APDEA: 50
  bacteria count 1 wk after adding APDEA: 116
  bacteria count 3 mo after adding APDEA: 38.8
  bacteria count 6 mo after adding APDEA: 22
  bacteria count 1 d after adding APDEA: 59
Bacteria [1]; [11]
  bacteria count 1 mo after adding APDEA: 98
  bacteria count 1 wk after adding APDEA: 95
  bacteria count 3 mo after adding APDEA: 177
  bacteria count 6 mo after adding APDEA: 93
  bacteria count 1 d after adding APDEA: 71
Bacteria [1]; 0.5 and 1 wt % to water phase
  biocidal effect as sole biocide: effects similar to NBDA
Bacteria [1]; [12]
  bacteria count 1 mo after adding APDEA: 78
  bacteria count 1 wk after adding APDEA: 80
  bacteria count 3 mo after adding APDEA: 134
  bacteria count 6 mo after adding APDEA: 167
  bacteria count 1 d after adding APDEA: 66
Bacteria [1]; [13]
  bacteria count 1 mo after adding APDEA: 100
  bacteria count 1 wk after adding APDEA: 22.4
  bacteria count 3 mo after adding APDEA: 99
  bacteria count 6 mo after adding APDEA: 132
  bacteria count 1 d after adding APDEA: 12
Bacteria [1]; [14]
  bacteria count 1 mo after adding APDEA: 110
  bacteria count 1 wk after adding APDEA: 115
  bacteria count 3 mo after adding APDEA: 98
  bacteria count 6 mo after adding APDEA: 38
  bacteria count 1 d after adding APDEA: 75
Bacteria [1]; [15]
  bacteria count 1 mo after adding APDEA: 98
  bacteria count 1 wk after adding APDEA: 81
  bacteria count 3 mo after adding APDEA: 92
  bacteria count 6 mo after adding APDEA: 98
  bacteria count 1 d after adding APDEA: 69
Bacteria [1]; [16]
  bacteria count 1 mo after adding APDEA: 33
  bacteria count 1 wk after adding APDEA: 18
  bacteria count 3 mo after adding APDEA: 78
  bacteria count 6 mo after adding APDEA: 20
  bacteria count 1 d after adding APDEA: 45
Bacteria [1]; [17]
  bacteria count 1 mo after adding APDEA: 75
  bacteria count 1 wk after adding APDEA: 136
  bacteria count 3 mo after adding APDEA: 151
  bacteria count 6 mo after adding APDEA: 35
  bacteria count 1 d after adding APDEA: 72
[2]
  solubility in water (words): water soluble

## [Cl-].[Na+] [NaCl, reference compound]
rat
  LD50 (rat, oral): 3000 mg

## CCCCCCCCN(CCO)CCO [2,2′-(octylimino)bisethanol]
Bacteria [3]; 0.50% in K-Oleate
  BSI (1 day after adding additive): 29
  BSI (after 1 month): 68
  BSI (after 1 week): 52
  BSI (after 3 months): 80.1
  BSI (after 9 months): 81.3
  bacteria count (1 day after adding additive): 789
  bacteria count (after 1 month): 215
  bacteria count (after 1 week): 758
  bacteria count (after 3 months): 88
  bacteria count (after 6 months): 0
  bacteria count (after 9 months): 30
Bacteria [3]; 1.00% in K-Oleate
  BSI (1 day after adding additive): 35
  BSI (after 1 month): 71
  BSI (after 1 week): 43
  BSI (after 3 months): 82.4
  BSI (after 6 months): 30.6
  BSI (after 9 months): 88.8
  bacteria count (1 day after adding additive): 284
  bacteria count (after 1 month): 50
  bacteria count (after 1 week): 176
  bacteria count (after 3 months): 39
  bacteria count (after 6 months): 629
  bacteria count (after 9 months): 13
Bacteria [4]; [18]
  BSI (1 day after adding additive): 18
  BSI (after 1 month): 47
  BSI (after 1 week): 14
  BSI (after 3 months): 75
  BSI (after 9 months): 90.8
  bacteria count (1 day after adding additive): 917
  bacteria count (after 1 month): 360
  bacteria count (after 1 week): 5040
  bacteria count (after 3 months): 28.5
  bacteria count (after 6 months): 0
  bacteria count (after 9 months): 7.5
Bacteria [4]; [19]
  BSI (1 day after adding additive): 18
  BSI (after 1 month): 80
  BSI (after 1 week): 13
  BSI (after 3 months): 53.1
  BSI (after 6 months): 55.6
  BSI (after 9 months): 39.2
  bacteria count (1 day after adding additive): 369
  bacteria count (after 1 month): 2.6
  bacteria count (after 1 week): 141
  bacteria count (after 3 months): 20.7
  bacteria count (after 6 months): 5.86
  bacteria count (after 9 months): 10.5
Bacteria [5]; 0.50%, 1 day after adding additive
  bacteria count: 226
Bacteria [5]; 0.50%, after 1 month
  bacteria count: 20
Bacteria [5]; 0.50%, after 1 week
  bacteria count: 20
Bacteria [5]; 0.50%, after 3 months
  bacteria count: 282
Bacteria [5]; 0.50%, after 6 months
  bacteria count: 0
Bacteria [5]; 1.00%, 1 day after adding additive
  bacteria count: 174
Bacteria [5]; 1.00%, after 1 month
  bacteria count: 155
Bacteria [5]; 1.00%, after 1 week
  bacteria count: 180
Bacteria [5]; 1.00%, after 3 months
  bacteria count: 0
Bacteria [5]; 1.00%, after 6 months
  bacteria count: 0
Bacteria [5]; as low concentration as 0.50%, all three test solutions, long term (at least 6 months)
  effectiveness as a biocide: highly effective as a biocide
[2]
  solubility in water: 1400 µg/mL (≈ 6.44 mM)
  solubility in water (words): water dispersible
